Where two headings read alike, the source gives them in different places. Starred links: 1 amine or outer side, 2 acyl side, 3 side chain; linkers in the order of their positions; H or OH if unused. Positions of bridges follow the written chain, without caps; N, C: chain ends. Non-standard residues stand in square brackets, D forms with d. Residues, ends and D or L forms follow the SMILES beside them. ξ: configuration not given here. *: point of attachment. X1 = O=C(CCOCC(COCCC(=O)NCCOCCOCCOCCOCC1OCC(Nc2cncc(C(F)(F)F)n2)C(O)C1O)NCC(=O)*)NCCOCCOCCOCCOCC1OCC(Nc2cncc(C(F)(F)F)n2)C(O)C1O; ξPro(4ξ-NH2) = O=C(C1CC(N[*:3])CN1[*:1])[*:2]
Tests used:
[1] = target: T1, ASGPR receptor on HepG2 cells (ternary complex with AF488-labeled antibody) (Homo sapiens, UniProt P07306); test: Ternary complex formation assay (flow cytometry, cell-associated AF488 fluorescence); type: cell-based
T1 construct: host or cells: HepG2
T1 sequence (P07306 1-291): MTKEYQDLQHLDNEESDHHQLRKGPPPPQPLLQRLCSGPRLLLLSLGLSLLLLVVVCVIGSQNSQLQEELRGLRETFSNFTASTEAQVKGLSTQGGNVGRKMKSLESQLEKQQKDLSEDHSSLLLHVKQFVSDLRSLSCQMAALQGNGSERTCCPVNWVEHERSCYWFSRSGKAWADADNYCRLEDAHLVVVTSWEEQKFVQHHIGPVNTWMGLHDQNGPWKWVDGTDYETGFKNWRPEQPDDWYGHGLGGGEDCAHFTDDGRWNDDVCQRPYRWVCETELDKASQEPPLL
T1 sequence (P07307 1-311 partner): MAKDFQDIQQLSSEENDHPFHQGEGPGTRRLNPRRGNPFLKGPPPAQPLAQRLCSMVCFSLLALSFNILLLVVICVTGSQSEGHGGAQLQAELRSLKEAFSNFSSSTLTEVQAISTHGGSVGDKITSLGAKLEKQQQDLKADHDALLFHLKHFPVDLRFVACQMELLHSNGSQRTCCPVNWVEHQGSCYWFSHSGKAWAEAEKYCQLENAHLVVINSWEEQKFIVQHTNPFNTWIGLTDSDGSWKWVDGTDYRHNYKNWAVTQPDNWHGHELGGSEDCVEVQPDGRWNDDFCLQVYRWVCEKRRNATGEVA
Procedure: Human IgG (Sigma-Aldrich, 14506) was covalently labeled with Alexa Fluor 488 using the Alexa Fluor™ 488 Protein Labeling Kit (Thermo Fisher, A10235) following the manufacturer's instructions. HepG2 cells (ATCC, HB-8065) were cultured to about 70% confluence and harvested by trypsinization. Single cell suspensions of HepG2 cells were plated in 96 well plates at 1×10^5 cells/well in cell culture media (DMEM supplemented with 10% FBS) and placed at 4° C. For studies using human IgG, cells were incubated with 100 nM AF488-labeled anti-human IgG and serial dilutions of IgG-based degrader for 1 hour at 4° C. For studies using DNP, cells were incubated with 100 nM AF488-labeled polyclonal rabbit anti-dinitrophenyl (DNP) antibodies (ThermoFisher) and serial dilutions of DNP-based degrader for 1 hour at 4° C. After washing once with ice-cold PBS containing 0.1% BSA and 0.1% sodium azide, cells were resuspended in 150 uL PBS+0.1% BSA and cell-associated AF488 fluorescence was measured by flow cytometry using the iQue® Screener PLUS Flow Cytometer (IntelliCyt). […]

IgG = IgG SPR binding; conditions: second table, read-out: IgG KD
ASGPR = target: T2, ASGPR (Homo sapiens, UniProt P07306); test: ASGPR SPR binding
T2 construct: biotin (biotinylated)
T2 sequence (P07306 1-291): T1 sequence (P07306 1-291)

[2] = read-out: TCF EC50, 100 nM AF488-labeled antibody, 1 hour at 4° C., the 25th table, class symbols
[3] = second table, read-out: ASGPR KD
[4] = read-out: ASGPR KD, second table

| EC50 ([1]; 100 nM AF488-labeled antibody, 1 hour at 4° C., the 25th table, class symbols, read-out: TCF EC50) | Structure (SMILES) | EC50 [1, 2] | Kd (IgG) | Kd (ASGPR; [3]) | Kd (ASGPR; [4]) |
| --- | --- | --- | --- | --- | --- |
|  | CC(C)CC1NC(=O)C(Cc2cnc[nH]2)NC(=O)C(Cc2c[nH]c3ccccc23)NC(=O)C(C)NC(=O)C2CSSCC(NC(=O)C(Cc3c[nH]c4ccccc34)NC(=O)C(C(C)C)NC(=O)C(CC(C)C)NC(=O)C(CCC(=O)O)NC(=O)CNC1=O)C(=O)NC(C(C)O)C(=O)N1CCCC1C(=O)N1CC(NC(=O)C3CCC(C(=O)NCC4OCC(Nc5cncc(C(F)(F)F)n5)C(O)C4O)CC3)CC1C(=O)NC(CC(=O)O)C(=O)N2 (stereo not drawn) [compound 45] | > 1000 nM | < 100 nM | 100 to 500 nM |  |
|  | CC(C)CC1NC(=O)C(C)NC(=O)CNC(=O)C(CC(C)C)NC(=O)C(Cc2cnc[nH]2)NC(=O)C(Cc2c[nH]c3ccccc23)NC(=O)C(C)NC(=O)C2CSSCC(NC(=O)C(Cc3c[nH]c4ccccc34)NC(=O)C(C(C)C)NC1=O)C(=O)NC(C(C)O)C(=O)N1CCCC1C(=O)N1CC(NC(=O)CNC(COCCC(=O)NCCOCCOCCOCCOCC3OCC(Nc4cncc(C(F)(F)F)n4)C(O)C3O)COCCC(=O)NCCOCCOCCOCCOCC3OCC(Nc4cncc(C(F)(F)F)n4)C(O)C3O)CC1C(=O)NC(CC(N)=O)C(=O)N2 (stereo not drawn) [compound 74] (cyclo(GALVWCTP[ξPro(4ξ-NH2)](X1)NCAWHL); disulfide 6-11; configuration not given here) | < 100 nM | < 100 nM |  | < 100 nM |
| < 100 nM | CC(C)CC1NC(=O)C(Cc2cnc[nH]2)NC(=O)C(Cc2c[nH]c3ccccc23)NC(=O)C(C)NC(=O)C2CSSCC(NC(=O)C(Cc3c[nH]c4ccccc34)NC(=O)C(C(C)C)NC(=O)C(CC(C)C)NC(=O)C(CCC(=O)O)NC(=O)CNC1=O)C(=O)NC(C(C)O)C(=O)N1CCCC1C(=O)N1CC(NC(=O)CCOCCOCCOCCOCCNC(=O)CCCc3cn(CCCCCC(=O)NC(COCCC(=O)NCCOCCOCCOCCOCC4OCC(Nc5nccc(C(F)(F)F)n5)C(O)C4O)(COCCC(=O)NCCOCCOCCOCCOCC4OCC(Nc5nccc(C(F)(F)F)n5)C(O)C4O)COCCC(=O)NCCOCCOCCOCCOCC4OCC(Nc5nccc(C(F)(F)F)n5)C(O)C4O)nn3)CC1C(=O)NC(CC(=O)O)C(=O)N2 (stereo not drawn) [compound 88] |  | < 100 nM | < 100 nM |  |
|  | CC(C)CC1NC(=O)C(Cc2cnc[nH]2)NC(=O)C(Cc2c[nH]c3ccccc23)NC(=O)C(C)NC(=O)C2CSSCC(NC(=O)C(Cc3c[nH]c4ccccc34)NC(=O)C(C(C)C)NC(=O)C(CC(C)C)NC(=O)C(CCC(=O)O)NC(=O)CNC1=O)C(=O)NC(C(C)O)C(=O)N1CCCC1C(=O)N1CC(NC(=O)CNC(COCCC(=O)NCCOCCOCCOCCOCC3OCC(Nc4cncc(C(F)(F)F)n4)C(O)C3O)COCCC(=O)NCCOCCOCCOCCOCC3OCC(Nc4cncc(C(F)(F)F)n4)C(O)C3O)CC1C(=O)NC(CC(=O)O)C(=O)N2 (stereo not drawn) [compound 46] | < 100 nM | < 100 nM |  | < 100 nM |
|  | CC(C)CC1NC(=O)C(Cc2cnc[nH]2)NC(=O)C(Cc2c[nH]c3ccccc23)NC(=O)C(C)NC(=O)C2CSSCC(NC(=O)C(Cc3c[nH]c4ccccc34)NC(=O)C(C(C)C)NC(=O)C(CC(C)C)NC(=O)C(CCC(=O)O)NC(=O)CNC1=O)C(=O)NC(C(C)O)C(=O)N1CCCC1C(=O)N1CC(NC(=O)CC(=O)NCC3OCC(Nc4cncc(C(F)(F)F)n4)C(O)C3O)CC1C(=O)NC(CC(=O)O)C(=O)N2 (stereo not drawn) [compound 38] | < 100 nM | < 100 nM | < 100 nM |  |
